According to patent US12589099B2 (priority 2021, dated 2026):

Tests used:
Format in all cases: in vivo, male Wistar rats
[1] = tested on: pathological p-Tau (AT8); experiment: p-Tau (AT8) immunostaining 35 days post-TBI; settings: 4.5 mg/kg IN twice daily, cortex, DG, CA3, CA1 of ipsilateral hemisphere
Text: (§1) Young adult (2-3 months) male Wistar rats were subjected to a moderate traumatic brain injury (TBI) induced by controlled cortical impact (CCI). Animal models of TBI including the CCI model and functional tests have been described in detail in peer reviewed publications (Xiong et al., 2013, Nat Rev Neurosci.; Zhang et al., 2016, J Neurosurg.; Zhang et al., 2016, Neurochem Int.; Zhang et al., 2021, J Neurotrauma). Injury consisted of a single impact at 4.0 m/sec, 2.5 mm deformation to the left parietal cortex. In addition, a group of animals was left healthy/not injured to serve as a healthy control.
The substance used in this study was ALPHA-1062 at 4.5 mg/kg. […]
(§2) Histological assessment was performed including quantitative image analysis protocols; followed by statistical analysis of the data. […]
For cell counting and quantitation NeuN+ cells were examined in the ipsilateral cortex, DG, CA1, and CA3 regions of the ipsilateral hippocampus. […] The number of BrdU+ cells (red-fluorophore) and NeuN (green-fluorophore)/BrdU-colabeled cells (yellow after merge) were counted. […] The immune-positive cells were determined and divided by the measured areas and presented as numbers per square mm. […] Tau or p-Tau immunoreactive areas including cortex, dentate gyrus, CA3 and CA1 regions of the ipsilateral hemisphere were imaged and quantified by Image J software (NIH).

[2] = Body weight over the 35-day TBI study (overt toxicity); settings: 4.5 mg/kg IN twice daily
Text: as §1
The animals were divided into 3 groups: • 1) TBI+Vehicle (purified water, n=10) • 2) TBI+ALPHA-1062 (4.5 mg/kg) (n=10) • 3) Healthy/not injured and not treated (Sham surgery) (n=10)
The substance used in this study was ALPHA-1062 at 4.5 mg/kg. As control treatment (vehicle) purified water was administered intranasally (IN). The ALPHA-1062 and the control treatment were initiated 2 hours after injury and continued twice daily (with a 6-hour interval) for 35 consecutive days.

[3] = tested on: DCX+ neuroblasts in the dentate gyrus of the hippocampus; experiment: Doublecortin (DCX) IHC, neuroblasts in the dentate gyrus 35 days post-TBI; settings: 4.5 mg/kg IN twice daily; 35 days following TBI
Text: as §1
The substance used in this study was ALPHA-1062 at 4.5 mg/kg. As control treatment (vehicle) purified water was administered intranasally (IN). […]
as §2
For cell counting and quantitation NeuN+ cells were examined in the ipsilateral cortex, DG, CA1, and CA3 regions of the ipsilateral hippocampus. […] The number of BrdU+ cells (red-fluorophore) and NeuN (green-fluorophore)/BrdU-colabeled cells (yellow after merge) were counted. […] The immune-positive cells were determined and divided by the measured areas and presented as numbers per square mm. […]

**Q.** Which “levels of p-Tau compared to vehicle controls” value [1] does the source give for `COc1ccc2c3c1O[C@H]1C[C@@H](OC(=O)c4ccccc4)C=C[C@@]31CCN(C)C2` [ALPHA-1062, (4aS,6R,8aS)-5,6,9,10,11,12-hexahydro-3-methoxy-11-methyl-4aH-[1]benzofuro[3a,3,2-ef][2]benzazepin-6-ol benzoate] here?
**A.** significantly reduced levels of p-Tau

**Q.** And the overt toxicity ([2]; 35 days, compared to vehicle animals)?
**A.** did not show overt toxicity

**Q.** What about the “body weight compared to vehicle treated or untreated animals” value ([2]; each time point D0-D35, P>0.05) of the same molecule?
**A.** no significant alterations in body weight

**Q.** What about the “body weight compared to day zero (D0), days 29-35” value ([2]; within group) of the same molecule?
**A.** significant body weight gain

**Q.** What about the “body weight compared to day zero (D0), days 1-7” value ([2]; within group, p<0.05) of the same molecule?
**A.** significant body weight loss

**Q.** What about the “DCX positive cells in dentate gyrus compared to sham surgery cohort” value [3] of the same molecule?
**A.** comparable numbers

**Q.** And the “DCX positive cells in dentate gyrus compared to vehicle” value [3]?
**A.** higher number of DCX positive cells
